# Test results published in article PMC5430839, “Deciphering the mode of action of cell wall-inhibiting antibiotics using metabolic labeling of growing peptidoglycan in Streptococcus pyogenes” (Scientific Reports, 2017).
# Read-outs that look alike come from different tables or passages of the source.
# Experiments:
# S. pyogenes strain JRS4 [1] = assay: Determination of subbacteriostatic concentrations (growth curve, OD600); type: cell-based, Streptococcus pyogenes; details: minimum dose at which growth curve plateaus at OD600 <1.0 after 4-h incubation at 37 °C, THY, added at OD600 0.4
# Protocol: (§1) S. pyogenes strain JRS4 (M6^+ F1^+) was grown in Todd-Hewitt broth supplemented with 0.3% yeast extract (THY) at 37 °C.
# S. pyogenes were grown in THY to an OD600 of 0.4 (exponential phase) at 37 °C and then added a solution of antibiotic of varying concentration. The culture mixture was further incubated for 4 h at 37 °C. Subbacteriostatic concentration in this study is the minimum dose of antibiotic that makes growth curve reach a plateau at OD600 of <1.0 after the 4-h incubation. In the absence of antibiotics, GAS cells grew up to OD600 of approximately 1.6. Subbacteriostatic concentrations were determined for each antibiotic, and mode-of-action analyses were performed at these concentrations (Figs 2, 3, 4, 5, 6 and 7).
# S. pyogenes strain JRS4 [2] = assay: Live cell labeling with sortase A substrate in the presence of antibiotics: phenotype and cell size distribution; type: cell-based, Streptococcus pyogenes; details: for cells with one or more completed septa among cells with multiple division sites: n = 55 (CBPV), 114 (flavomycin), 105 (ΔNCBPV) cells
# Text: Streptococcal cell wall synthesis consists of cylindrical peripheral synthesis and septal synthesis (Fig. 1A). A study using Streptococcus pneumoniae illustrated that the serine-threonine kinase StkP controls the switch from peripheral synthesis to septal synthesis. Splitting of the septum (cell separation) is then mediated by the action of autolysin. We labeled the GAS cell wall using the sortase method in the absence of antibiotics, and the observed labeling patterns of GAS were classified into three phenotypes (Fig. 1A–C). Phenotype A cells are newly divided cells without specific fluorescent labeling. Phenotype B cells are in the peripheral growth stage. A characteristic two-elongated-dot image or an open ring corresponds to peripheral growth near the bacterial division site. Phenotype C cells are in the septal growth stage, and the dividing septum is fluorescently stained. The distribution (%) of phenotypes A, B, and C among cells was 37 ± 2, 47 ± 2, and 16 ± 1, respectively, in log-phase GAS. Data represent the mean ± sem (n = 3). Subsequently, we constructed a histogram of each phenotype population as a function of bacterial cell length, as defined in Fig. 1C (orange, Fig. 1D). The subpopulation of cells with a specific phenotype is overlaid on the total cell size distribution (blue). […] The histograms also illustrate that cells grow from phenotype A, through phenotype B, to phenotype C (followed by cell separation), confirming that peripheral growth precedes septal growth in GAS. We speculated that the changes of this histogram would provide information on antibiotic modes of action.
# as §1
# Bacterial cells grown in THY to an OD600 of 0.35–0.4 (exponential phase) at 37 °C were exposed to antibiotics and incubated for 1 h, and 100-μL aliquots of culture mixture were taken and added to a solution of sortase substrate (FL-KLPETG-NH2, final concentration = 1 mM). After incubation for 2.5 h at 37 °C in the dark, Nile Red (10 μg/mL) and DAPI (1 μg/mL) were added. The mixture was allowed to stand for 30 min and then centrifuged (12,000 rpm, 2 min, 4 °C). The supernatant was removed, and the pellet was washed thrice with PBS buffer to remove unreacted sortase substrate. Cells were re-suspended in PBS buffer, mounted on a glass slide, and examined by fluorescent microscopy. Images were analyzed manually using ImageJ software (ver. 1.50). Sets of axial- and equatorial-length were also recorded for each cell. At least 200 cells were analyzed in each analysis. All experiments were performed at least thrice, and representative results are shown.
# S. pyogenes strain JRS4 [3] = assay: Imaging of peripheral growth by FDAA pre-labeling in D-cycloserine/oxacillin-treated cells; type: cell-based, Streptococcus pyogenes; details: FDAA pre-labeling 1 h, then antibiotic 3 h
# Text: The observed enlargement of cells implied that cell wall synthesis could proceed, at least partly, in the presence of these antibiotics at their subbacteriostatic concentrations. We therefore studied the relationship between peripheral growth length and axial length for cells via dual-color staining. Nile red was used to stain the bacterial cell membrane, and the fluorescent D-amino acid (FDAA) labeling[10]–[12] was employed for old cell wall (preexisting prior to antibiotic treatment). In the presence of antibiotic, peripheral growth length was measured as a gap between the old (stained) regions of the preexisting cell wall (Fig. 5A and B).
# Bacterial cells grown in THY to an OD600 of 0.2 (exponential phase) at 37 °C, and 100-μL aliquots of culture mixture were taken (Fig. 5). FDAA solution (final concentration = 1 mM; FL-D-Lys for Fig. 5A and E, tetramethylrhodamine- D-Lys for Fig. 5D) was added, and the mixture was incubated for 1 h at 37 °C in the dark. The mixture was centrifuged (12,000 rpm, 2 min, 4 °C), the supernatant was removed, and the pellet was washed with PBS buffer thrice to remove unreacted FDAA. Cells were re-suspended in 100-μL THY and incubated at 37 °C in the dark with antibiotics for 2.5 h. […]
# gram-positive strains = details: ref many studies; cited from earlier work
# [4] = antibiotic at subbacteriostatic conc., mean ± sem, n = 3
# [5] = antibiotic at subbacteriostatic conc.
Molecule,subbacteriostatic concentration (S. pyogenes strain JRS4 [1]) [µg/mL],"proportion of cells, phenotype A (no active cell wall synthesis) (S. pyogenes strain JRS4 [2]; [4]) [%]","proportion of cells, phenotype B (peripheral growth) (S. pyogenes strain JRS4 [2]; [4]) [%]","proportion of cells, phenotype C (septal growth) (S. pyogenes strain JRS4 [2]; [4]) [%]","proportion of cells, phenotype D (multiple septa in an elongated cell) (S. pyogenes strain JRS4 [2]; [4]) [%]",peripheral growth/axial length relationship (dot blot analysis) (S. pyogenes strain JRS4 [3]),cells with one or more completed septa among cells with multiple division sites (S. pyogenes strain JRS4 [2]; [5]) [%],"proportion of cells, phenotype D′ (multiple peripheral growth sites, axially elongated) (S. pyogenes strain JRS4 [2]; [4]) [%]",antibacterial activity (gram-positive strains),"proportion of cells, phenotype B (peripheral growth) (S. pyogenes strain JRS4 [2]) [%]","proportion of cells, phenotype C (septal growth) (S. pyogenes strain JRS4 [2]) [%]","proportion of cells, phenotype D′ (multiple peripheral growth sites, axially elongated) (S. pyogenes strain JRS4 [2]) [%]"
N[C@@H]1CON=C1O [D-Cycloserine],100,25 ± 6,68 ± 7,2 ± 1,5 ± 1,considerably larger than that of oxacillin-treated cells,–,–,–,–,–,–
Cc1onc(-c2ccccc2)c1C(=O)N[C@@H]1C(=O)N2[C@@H]1SC(C)(C)[C@@H]2C(=O)O [Oxacillin],4,19 ± 4,60 ± 4,12 ± 5,9 ± 2,peripheral growth barely contributed to cell enlargement,–,–,–,–,–,–
Bacitracin,4,–,–,–,–,–,–,–,–,–,–,–
Flavomycin,1,4 ± 1,20 ± 6,22 ± 2,54 ± 5,–,98,–,–,–,–,–
Ramoplanin,2,27 ± 3,50 ± 4,23 ± 5,–,–,–,–,–,–,–,–
Vancomycin,4,34 ± 4,49 ± 4,17 ± 1,–,–,–,–,–,–,–,–
chlorobiphenyl vancomycin [CBPV],0.25,20 ± 1,58 ± 6,9 ± 2,–,–,4,13 ± 4,–,–,–,–
des-N-methyl-leucyl-vancomycin,–,–,–,–,–,–,–,–,totally loses its antibacterial activity,–,–,–
des-N-methylleucyl chlorobiphenyl vancomycin [ΔNCBPV],3,14 ± 1,–,–,–,–,52,–,–,45 ± 12,17 ± 8,24 ± 3
